In patent US10189841B2, “Purinones as ubiquitin-specific protease 1 inhibitors” (Forma Therapeutics, Inc., priority 2015, dated 2019):

biological target: USP1 (construct USP1 (I-785, GG670, 671AA)/UAF1 (I-677)-Flag) (Homo sapiens (Human), UniProt O94782, G670A/G671A); experiment: Ubiquitin-Rhodamine 110 assay for USP1 activity; type: biochemical; conditions: USP1/UAF1 25 pM, Ub-Rh110 25 nM, 30 min preincubation
Summary of the method: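 Two formats with the USP1/UAF1 complex and 25 nM ubiquitin-rhodamine 110 in pH 8.0 Tris buffer with calcium, glutathione and detergent. Single-point screening used 10 µM, 100 pM enzyme and 45 min. Inhibition was set against no-enzyme and DMSO wells.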

Sequence of USP1 (construct USP1 (I-785, GG670, 671AA)/UAF1 (I-677)-Flag) (O94782 whole entry G670A/G671A): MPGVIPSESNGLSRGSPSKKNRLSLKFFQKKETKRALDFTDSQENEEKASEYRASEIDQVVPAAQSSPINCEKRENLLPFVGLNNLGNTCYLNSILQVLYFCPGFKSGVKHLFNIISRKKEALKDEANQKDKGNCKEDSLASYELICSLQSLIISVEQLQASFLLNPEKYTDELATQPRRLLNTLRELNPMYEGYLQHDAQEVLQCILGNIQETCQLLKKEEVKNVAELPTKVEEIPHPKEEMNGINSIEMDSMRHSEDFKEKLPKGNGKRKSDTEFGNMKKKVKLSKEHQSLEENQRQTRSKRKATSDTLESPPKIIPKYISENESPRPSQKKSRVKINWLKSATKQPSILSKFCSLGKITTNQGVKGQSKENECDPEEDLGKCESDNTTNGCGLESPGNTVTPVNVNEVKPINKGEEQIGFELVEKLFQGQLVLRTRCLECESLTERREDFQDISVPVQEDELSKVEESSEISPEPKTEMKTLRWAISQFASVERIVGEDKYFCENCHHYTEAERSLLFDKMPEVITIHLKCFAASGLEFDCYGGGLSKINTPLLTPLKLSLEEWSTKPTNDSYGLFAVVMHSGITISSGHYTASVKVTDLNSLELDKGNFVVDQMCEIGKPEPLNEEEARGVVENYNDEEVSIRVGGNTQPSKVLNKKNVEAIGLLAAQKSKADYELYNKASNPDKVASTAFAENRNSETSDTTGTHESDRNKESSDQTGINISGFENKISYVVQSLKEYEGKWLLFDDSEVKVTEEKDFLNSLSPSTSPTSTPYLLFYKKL
Sequence of USP1 (construct USP1 (I-785, GG670, 671AA)/UAF1 (I-677)-Flag) (Q8TAF3 whole entry partner): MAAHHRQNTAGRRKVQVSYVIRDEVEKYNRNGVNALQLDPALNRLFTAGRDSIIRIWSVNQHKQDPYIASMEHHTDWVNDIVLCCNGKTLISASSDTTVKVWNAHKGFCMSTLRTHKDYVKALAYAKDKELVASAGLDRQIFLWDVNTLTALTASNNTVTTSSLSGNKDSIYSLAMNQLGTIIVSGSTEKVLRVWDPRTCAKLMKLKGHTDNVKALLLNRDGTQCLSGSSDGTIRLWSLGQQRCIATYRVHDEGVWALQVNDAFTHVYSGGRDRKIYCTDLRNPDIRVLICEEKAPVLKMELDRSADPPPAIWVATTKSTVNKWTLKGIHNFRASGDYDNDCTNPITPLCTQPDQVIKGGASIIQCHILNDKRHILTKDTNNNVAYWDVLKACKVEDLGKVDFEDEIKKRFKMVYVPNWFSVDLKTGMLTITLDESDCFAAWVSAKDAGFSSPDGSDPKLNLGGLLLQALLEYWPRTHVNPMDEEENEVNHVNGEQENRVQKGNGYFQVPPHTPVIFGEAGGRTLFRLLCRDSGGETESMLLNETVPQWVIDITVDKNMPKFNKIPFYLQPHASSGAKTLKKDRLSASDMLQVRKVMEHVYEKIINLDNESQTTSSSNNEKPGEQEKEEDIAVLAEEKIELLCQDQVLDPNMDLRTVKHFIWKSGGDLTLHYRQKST

Structure (SMILES)	IC50
CC(C)c1ccccc1-c1ncc2[nH]c(=O)n(Cc3cnc(-n4cccn4)cn3)c2n1 [Compound I-508, 9-((5-(1H-Pyrazol-1-yl)pyrazin-2-yl)methyl)-2-(2-isopropylphenyl)-7,9-dihydro-8H-purin-8-one]	> 2 µM
CC(C)c1ccccc1-c1ncc2[nH]c(=O)n(Cc3ncc(-n4cccn4)cn3)c2n1 [Compound I-509, 9-((5-(1H-pyrazol-1-yl)pyrimidin-2-yl)methyl)-2-(2-isopropylphenyl)-7,9-dihydro-8H-purin-8-one]	> 2 µM
Cc1cc(C)n(-c2cnc(Cn3c(=O)[nH]c4cnc(-c5ccccc5C(C)C)nc43)cn2)n1 [Compound I-510, 9-((5-(3,5-Dimethyl-1H-pyrazol-1-yl)pyrazin-2-yl)methyl)-2-(2-isopropylphenyl)-7,9-dihydro-8H-purin-8-one]	0.05 to 0.2 µM
Cc1cc(C)n(-c2cnc(Cn3c(=O)[nH]c4cnc(-c5ccccc5C(C)C)nc43)nc2)n1 [Compound I-511, 9-((5-(3,5-Dimethyl-1H-pyrazol-1-yl)pyrimidin-2-yl)methyl)-2-(2-isopropylphenyl)-7,9-dihydro-8H-purin-8-one]	0.2 to 2 µM
CC(C)c1ccccc1-c1ncc2[nH]c(=O)n(Cc3ccc(N4CCCC4=O)cc3)c2n1 [Compound I-512, 2-(2-Isopropylphenyl)-9-(4-(2-oxopyrrolidin-1-yl)benzyl)-7,9-dihydro-8H-purin-8-one]	0.05 to 0.2 µM
CC(C)c1ccccc1-c1ncc2[nH]c(=O)n(Cc3ccc(-c4nnn[nH]4)cc3)c2n1 [Compound I-513, 9-(4-(1H-tetrazol-5-yl)benzyl)-2-(2-isopropylphenyl)-7,9-dihydro-8H-purin-8-one]	> 2 µM
Cc1nc(N2CCC(F)(Cn3c(=O)[nH]c4cnc(-c5ccccc5C(C)C)nc43)CC2)c(C)s1 [Compound I-514, 9-((1-(2,5-Dimethylthiazol-4-yl)-4-fluoropiperidin-4-yl)methyl)-2-(2-isopropylphenyl)-7,9-dihydro-8H-purin-8-one]	< 0.05 µM
CC(C)c1ncccc1-c1ncc2c(n1)n(Cc1ccc(-c3nc(C4CC4)cn3C)cc1)c(=O)n2C [Compound I-515, 9-(4-(4-cyclopropyl-1-methyl-1H-imidazol-2-yl)benzyl)-2-(2-isopropylpyridin-3-yl)-7-methyl-7,9-dihydro-8H-purin-8-one]	0.05 to 0.2 µM
CC(C)c1cnccc1-c1ncc2c(n1)n(Cc1ccc(-n3cccn3)cc1)c(=O)n2C [Compound I-516, 9-(4-(1H-Pyrazol-1-yl)benzyl)-2-(3-isopropylpyridin-4-yl)-7-methyl-7,9-dihydro-8H-purin-8-one]	> 2 µM
CC(C)c1cccnc1-c1ncc2c(n1)n(Cc1ccc(-n3cccn3)cc1)c(=O)n2C [Compound I-517, 9-(4-(1H-Pyrazol-1-yl)benzyl)-2-(3-isopropylpyridin-2-yl)-7-methyl-7,9-dihydro-8H-purin-8-one]	> 2 µM
COCCn1cc(-c2ccc(Cn3c(=O)[nH]c4cnc(-c5ccccc5C(C)C)nc43)cc2)cn1 [Compound I-518, 2-(2-Isopropylphenyl)-9-(4-(1-(2-methoxyethyl)-1H-pyrazol-4-yl)benzyl)-7,9-dihydro-8H-purin-8-one]	0.05 to 0.2 µM
CC(C)c1ccccc1-c1ncc2[nH]c(=O)n(Cc3ccc(-c4cnn(C5CCOCC5)c4)cc3)c2n1 [Compound I-519, 2-(2-Isopropylphenyl)-9-(4-(1-(tetrahydro-2H-pyran-4-yl)-1H-pyrazol-4-yl)benzyl)-7,9-dihydro-8H-purin-8-one]	0.2 to 2 µM
CC(C)c1ccccc1-c1ncc2[nH]c(=O)n(Cc3ccc(-c4cnn(CCN(C)C)c4)cc3)c2n1 [Compound I-520, 9-(4-(1-(2-(Dimethylamino)ethyl)-1H-pyrazol-4-yl)benzyl)-2-(2-isopropylphenyl)-7,9-dihydro-8H-purin-8-one]	0.2 to 2 µM
CC(C)c1ccccc1-c1ncc2[nH]c(=O)n(Cc3ccc(-c4cn(CCN(C)C)nn4)cc3)c2n1 [Compound I-521, 9-(4-(1-(2-(Dimethylamino)ethyl)-1H-1,2,3-triazol-4-yl)benzyl)-2-(2-isopropylphenyl)-7,9-dihydro-8H-purin-8-one]	0.2 to 2 µM
CC(C)c1ccccc1-c1ncc2[nH]c(=O)n(Cc3ccc(-c4cn(CCO)nn4)cc3)c2n1 [Compound I-522, 9-(4-(1-(2-Hydroxyethyl)-1H-1,2,3-triazol-4-yl)benzyl)-2-(2-isopropylphenyl)-7,9-dihydro-8H-purin-8-one]	0.2 to 2 µM
CC(C)c1ccccc1-c1ncc2[nH]c(=O)n(Cc3ccc(-c4cn[nH]n4)cc3)c2n1 [Compound I-523, 9-(4-(1H-1,2,3-triazol-5-yl)benzyl)-2-(2-isopropylphenyl)-7,9-dihydro-8H-purin-8-one]	0.05 to 0.2 µM

Structure (SMILES)	IC50
COC(=O)c1ccccc1-c1ncc2[nH]c(=O)n(Cc3ccc(-c4nc(C(F)(F)F)cn4C)cc3)c2n1 [Compound I-524, Methyl 2-(9-(4-(1-Methyl-4-(trifluoromethyl)-1H-imidazol-2-yl)benzyl)-8-oxo-8,9-dihydro-7H-purin-2-yl)benzoate]	< 0.05 µM
Cn1cc(C(F)(F)F)nc1-c1ccc(Cn2c(=O)[nH]c3cnc(-c4ccccc4C(C)(C)O)nc32)cc1 [Compound I-525, 2-(2-(2-hydroxypropan-2-yl)phenyl)-9-(4-(1-methyl-4-(trifluoromethyl)-1H-imidazol-2-yl)benzyl)-7,9-dihydro-8H-purin-8-one]	< 0.05 µM
Cn1cc(C(F)(F)F)nc1-c1ccc(Cn2c(=O)[nH]c3cnc(-c4ccccc4C4(O)CC4)nc32)cc1 [Compound I-526, 2-(2-(1-Hydroxycyclopropyl)phenyl)-9-(4-(1-methyl-4-(trifluoromethyl)-1H-imidazol-2-yl)benzyl)-7,9-dihydro-8H-purin-8-one]	< 0.05 µM
CCC(=O)c1ccccc1-c1ncc2[nH]c(=O)n(Cc3ccc(-c4nc(C(F)(F)F)cn4C)cc3)c2n1 [Compound I-527, 9-(4-(1-methyl-4-(trifluoromethyl)-1H-imidazol-2-yl)benzyl)-2-(2-propionylphenyl)-7,9-dihydro-8H-purin-8-one]	0.2 to 2 µM
CC(C)(O)c1ccccc1-c1ncc2[nH]c(=O)n(Cc3ccc(-n4cccn4)cc3)c2n1 [Compound I-528, 9-(4-(1H-Pyrazol-1-yl)benzyl)-2-(2-(2-hydroxypropan-2-yl)phenyl)-7,9-dihydro-8H-purin-8-one]	0.2 to 2 µM
CC(C)c1ccccc1-c1ncc2c(n1)n(Cc1ccc(-c3ncc[nH]3)cc1)c(=O)n2C [Compound I-529, 9-(4-(1H-Imidazol-2-yl)benzyl)-2-(2-isopropylphenyl)-7-methyl-7,9-dihydro-8H-purin-8-one]	0.05 to 0.2 µM
CC(C)c1ccccc1-c1ncc2c(n1)n(Cc1ccc(-n3cccn3)cc1)c(=O)n2C(C)C(=O)O (centres unmarked) [Compound I-530, 2-(9-(4-(1H-Pyrazol-1-yl)benzyl)-2-(2-isopropylphenyl)-8-oxo-8,9-dihydro-7H-purin-7-yl)propanoic acid]	0.2 to 2 µM
CNc1nc(-c2cccnc2OC(F)F)nc2c1[nH]c(=O)n2Cc1ccc(-c2nc(C(F)(F)F)cn2C)cc1 [Compound I-531, 2-(2-(Difluoromethoxy)pyridin-3-yl)-9-(4-(1-methyl-4-(trifluoromethyl)-1H-imidazol-2-yl)benzyl)-6-(methylamino)-7,9-dihydro-8H-purin-8-one]	< 0.05 µM
CNc1nc(-c2ccccc2C(C)C)nc2c1[nH]c(=O)n2Cc1ccc(-c2nc(C(F)(F)F)cn2C)cc1 [Compound I-532, 2-(2-Isopropylphenyl)-9-(4-(1-methyl-4-(trifluoromethyl)-1H-imidazol-2-yl)benzyl)-6-(methylamino)-7,9-dihydro-8H-purin-8-one]	< 0.05 µM
CC(C)c1ccccc1-c1nc(N(C)C)c2[nH]c(=O)n(Cc3ccc(-c4nc(C(F)(F)F)cn4C)cc3)c2n1 [Compound I-533, 6-(Dimethylamino)-2-(2-isopropylphenyl)-9-(4-(1-methyl-4-(trifluoromethyl)-1H-imidazol-2-yl)benzyl)-7,9-dihydro-8H-purin-8-one]	< 0.05 µM
CC(=O)c1nc(-c2ccccc2C(C)C)nc2c1[nH]c(=O)n2Cc1ccc(-c2nc(C(F)(F)F)cn2C)cc1 [Compound I-534, 6-Acetyl-2-(2-isopropylphenyl)-9-(4-(1-methyl-4-(trifluoromethyl)-1H-imidazol-2-yl)benzyl)-7,9-dihydro-8H-purin-8-one]	0.05 to 0.2 µM
COc1nc(-c2ccccc2C(C)C)nc2c1[nH]c(=O)n2Cc1ccc(-c2nc(C(F)(F)F)cn2C)cc1 [Compound I-535, 2-(2-Isopropylphenyl)-6-methoxy-9-(4-(1-methyl-4-(trifluoromethyl)-1H-imidazol-2-yl)benzyl)-7,9-dihydro-8H-purin-8-one]	< 0.05 µM
Cc1cnc(-c2ccc(Cn3c(=O)[nH]c4cnc(-c5ccccc5C(C)C)nc43)cc2)n1C(C)C [Compound I-536, 9-(4-(1-Isopropyl-5-methyl-1H-imidazol-2-yl)benzyl)-2-(2-isopropylphenyl)-7,9-dihydro-8H-purin-8-one]	< 0.05 µM
Cc1cn(C(C)C)c(-c2ccc(Cn3c(=O)[nH]c4cnc(-c5ccccc5C(C)C)nc43)cc2)n1 [Compound I-537, 9-(4-(1-isopropyl-4-methyl-1H-imidazol-2-yl)benzyl)-2-(2-isopropylphenyl)-7,9-dihydro-8H-purin-8-one]	< 0.05 µM
CC(=O)Nc1cn(C)c(-c2ccc(Cn3c(=O)[nH]c4cnc(-c5ccccc5C(C)C)nc43)cc2)n1 [Compound I-538, N-(2-(4-((2-(2-isopropylphenyl)-8-oxo-7,8-dihydro-9H-purin-9-yl)methyl)phenyl)-1-methyl-1H-imidazol-4-yl)acetamide]	0.05 to 0.2 µM
CC(C)c1ccccc1-c1ncc2[nH]c(=O)n(Cc3ccc(-c4cn[nH]c4)cc3)c2n1 [Compound I-539, 9-(4-(1H-Pyrazol-4-yl)benzyl)-2-(2-isopropylphenyl)-7,9-dihydro-8H-purin-8-one]	0.2 to 2 µM
